Assay results taken from patent publication US8399682B2, “Substituted (pyrazolylcarbonyl)imidazolidinones and their use” (AiCuris GmbH & Co. KG, priority 2008, dated 2013).

How the values were obtained:
[1] = molecular target: T1, reverse transcriptase (Human immunodeficiency virus type 1 group M subtype B, UniProt P04585); experiment: Biochemical Reverse Transcriptase Assay (Reverse Transcriptase Assay, colorimetric, Roche); settings: read-out: IC50 (nM) RT Assay
T1 construct: negative control (mixture without reverse transcriptase); purchased Roche Diagnostics GmbH, Mannheim, Germany
Description: The “Reverse Transcriptase Assay, colorimetric” (Roche Diagnostics GmbH, Mannheim, Germany) is used in accordance with the manufacturer's information. The test substances are dissolved in DMSO and are used in the test diluted in 5-fold steps (final DMSO concentration 1%). The resulting values of the photometric evaluation (405/492 nm) are less than 0.1 for the negative control (mixture without reverse transcriptase) and are in the region of 1.5 for the positive control (mixture without test substance). The IC50 values of the test substances are determined as the concentration of the test substance dilution at which the measured optical density is 50% of the positive control.

[2] = tested on: HIV-1LAI; experiment: H9 assay with wild-type HIV-1 (HIV-1LAI supernatant infection, AlamarBlue); assay type: cell-based; settings: Human immunodeficiency virus 1, H9 cells, 10% FCS
Description: For the mixture for a 96-well MTP, 3 million PBLs are pelleted, suspended in 1 ml of RPMI 1640 medium/10% FCS and incubated together with a suitable amount of HIV-1LAI (NIH AIDS Research & Reference Reagent Program, Germantown, USA) at 37° C. for 2 hours (pellet infection). Unadsorbed viruses are subsequently washed out with PBS, and the infected cells are pelleted again and suspended in 18 ml of RPMI 1640 medium/10% FCS/interleukin-2 (40 U/ml). 180 μl thereof are pipetted into each well of a white 96-well MTP with 20 μl of test substance in suitable dilution. Alternatively, after preparation of the substance dilutions in the MTP, the HIV is pipetted in together with the cells and is not washed out again (supernatant infection). In order to avoid edge effects, the wells at the edge of the MTP are not used for substance dilutions. The second vertical row of the MTP contains only infected cells (virus control) and the eleventh vertical row only uninfected cells (cell control), in each case in RPMI 1640 medium/10% FCS/interleukin-2 (40 U/ml). The other wells of the MTP contain the compounds of the invention in various concentrations starting from the third vertical row, from which the test substances are diluted in 3-fold steps up to the tenth vertical row 3^7-fold. The test substances are dissolved in DMSO, whereby the final DMSO concentration in the test mixture eventually is 1%. The test mixtures are incubated at 37° C./5% CO2. After 5 and 7 days, 50 μl of cell-free supernatant are removed from each well to determine the amount of p24 present by means of a p24 ELISA (HIV-1 p24^CA Antigen Capture Assay Kit, NCI-Frederick Cancer Research and Development Center, Frederick, USA). From the resulting values of the photometric evaluation (450/620 nm) the EC50 values of the test substances are determined as the concentration at which the amount of p24 is 50% of the untreated infected cells.
Alternatively, H9 cells (ATCC, Wesel, Germany) are employed instead of PBLs for testing the test substances. H9 cells are incubated in RPMI 1640 medium with 2% or 10% FCS as a HIV-1LAI supernatant infection at 37° C./5% CO2, (20 μl of substance dilution and 80 μl of cells/virus per well) in accordance with the pattern described above for 5 days. Subsequently, 10 μl of AlamarBlue (Invitrogen, Karlsruhe, Germany) are added to each well, and the MTPs are incubated at 37° C. for 3 hours before the fluorimetric evaluation takes place (544/590 nm). The resulting values are about 40 000 for the untreated uninfected cells and about 7000 for the untreated infected cells. In the low concentration range, the EC50 values of the test substances are determined as the concentration at which the fluorescence is 50% of the untreated uninfected cells (in each case subtracting the values of the untreated infected cells). In addition, in the high concentration range, the CC50 values of the test substances are determined as the concentration at which the fluorescence is 50% of the untreated uninfected cells (in each case subtracting the values of the untreated infected cells).

[3] = tested on: HIV-1NL4-3 wt; experiment: Light assay with wild-type HI reporter virus in MT4 7F2 cells; assay type: cell-based; settings: Human immunodeficiency virus 1, 2% FCS
Description: (§1) For the mixture for a 96-well MTP, 3 million MT4 7F2 cells are pelleted, suspended in 1 ml of RPMI 1640 medium without phenol red (Invitrogen, Karlsruhe, Germany)/10% FCS/10% AIM-V (Invitrogen, Karlsruhe, Germany) and incubated together with a suitable amount of the corresponding HIV-1NL4-3 reporter virus at 37° C. for 2 hours (pellet infection). Unadsorbed viruses are subsequently washed out with PBS, and the infected cells are pelleted again and suspended in 8 ml of RPMI 1640 medium without phenol red/2% or 10% FCS/10% AIM-V. 80 μl thereof are pipetted into each well of a white 96-well MTP with 20 μl of test substance in suitable dilution. To avoid edge effects, the wells on the edge of the MTP are not used for substance dilutions. The second vertical row of the MTP contains only infected cells (virus control) and the eleventh vertical row only uninfected cells (cell control), in each case in RPMI 1640 medium without phenol red/2% or 10% FCS/10% AIM-V. The other wells of the MTP contain the compounds of the invention in various concentrations starting from the third vertical row, from which the test substances are diluted in 3-fold steps up to the tenth vertical row 3^7-fold. The test substances are dissolved in DMSO, whereby the final DMSO concentration in the test mixture eventually is 1%. The test mixtures are incubated at 37° C./5% CO2 for five days and, after the addition of 15 μl of Lu164 substrate (5 mg/ml coelenterazine dissolved in 30 μM glutathione/DMSO, 100 mM NaCl, 1M MES, 100 mM glutathione), evaluated by luminometry. The resulting values are in the region of 1 000 000 RLUs (relative light units) for the virus control and 300 to 400 RLUs for the cell control. The EC50 values of the test substances are determined as the concentration at which the virus replication measured in RLUs is 50% of the untreated infected cells.

[4] = tested on: HIV-1NL4-3 K103N-Y181C; experiment: Light assay with inhibitor-resistant HI reporter virus in MT4 7F2 cells; assay type: cell-based; settings: Human immunodeficiency virus 1, read-out: EC50 (nM) MT4 7F2 cells HIV-1NL4-3 K103N-Y181C 2% FCS
Description: as §1

Compound | IC50 [1] | EC50 [2] | EC50 [3] | EC50 [4]
N#Cc1cccc(-n2nc(C(=O)N3CNC(=O)C3)cc2-c2cc(F)cc(Cl)c2)c1 [Example 59] | 8 nM | 1 nM | 0.2 nM | 10 nM
N#Cc1cc(-n2nc(C(=O)N3CNC(=O)C3)cc2-c2cc(F)cc(Cl)c2)ccc1F [Example 60, 5-{5-(3-Chloro-5-fluorophenyl)-3-[(4-oxoimidazolidin-1-yl)carbonyl]-1H-pyrazol-1-yl}-2-fluorobenzenecarbonitrile] | 9 nM | 0.9 nM | 0.1 nM | 4 nM
N#Cc1cc(F)cc(-c2cc(C(=O)N3CNC(=O)C3)nn2-c2cccc(Cl)c2)c1 [Example 61, 3-{1-(3-Chlorophenyl)-3-[(4-oxoimidazolidin-1-yl)carbonyl]-1H-pyrazol-5-yl}-5-fluorobenzenecarbonitrile] | 35 nM | 3 nM | 1 nM | 80 nM
N#Cc1cc(F)cc(-c2cc(C(=O)N3CNC(=O)C3)nn2-c2ccc(F)c(Cl)c2)c1 [Example 62, 3-{1-(3-Chloro-4-fluorophenyl)-3-[(4-oxoimidazolidin-1-yl)carbonyl]-1H-pyrazol-5-yl}-5-fluorobenzenecarbonitrile] | 49 nM | 9 nM | 2 nM | 63 nM
N#Cc1cc(F)cc(-c2cc(C(=O)N3CNC(=O)C3)nn2-c2ccc(F)c(C#N)c2)c1 [Example 63, 5-{5-(3-Cyano-5-fluorophenyl)-3-[(4-oxoimidazolidin-1-yl)carbonyl]-1H-pyrazol-1-yl}-2-fluorobenzenecarbonitrile] | 102 nM | 150 nM | 20 nM | 237 nM
N#Cc1cc(F)cc(-c2cc(C(=O)N3CNC(=O)C3)nn2-c2cccc(C#N)c2)c1 [Example 64, 3-{1-(3-Cyanophenyl)-3-[(4-oxoimidazolidin-1-yl)carbonyl]-1H-pyrazol-5-yl}-5-fluorobenzenecarbonitrile] | 25 nM | 100 nM | 5 nM | 250 nM
